The target of data set [1] is Human immunodeficiency virus type 1 integrase (Human immunodeficiency virus 1, UniProt Q7ZJM1). Nature of the data set: Inhibition of recombinant HIV-1 integrase by microtiter plate integration assay.
Data set [2] can be described thus: Selectivity ratio of PAEC50 for antiviral activity against HIV-1 infected in human MT4 cells in presence of human serum albumin to EC50 for antiviral activity against HIV-1 infected in human MT4 cells. The data set is classed as functional, Human immunodeficiency virus 1.
Data set [3] can be described thus: Cytotoxicity against human MT4 cells. The class given is toxicity, cell-based.
Data set [4] concerns Human immunodeficiency virus 1. The data set can be described thus: Antiviral activity against HIV-1 infected in human MT4 cells. The class given is functional, organism-based. The conditions noted are these: Human immunodeficiency virus 1, MT4.
Data set [5] concerns Human immunodeficiency virus 1. The data set can be described thus: Antiviral activity against HIV-1 harboring raltegravir resistant Q148H mutant infected in human HeLa-CD4 cells assessed as fold change. The data set is classed as functional.
Data set [6] is described as follows: Half-life in cynomolgus monkey at 1 mg/kg, iv. The class given is ADME, organism-based, Macaca fascicularis. Particulars: in vivo.
Data set [7] can be described thus: Oral bioavailability in cynomolgus monkey at 5 mg/kg. Particulars: in vivo. The class given is ADME, organism-based, Macaca fascicularis.
The nature of data set [8]: Cmax in cynomolgus monkey at 5 mg/kg, po or 1 mg/kg, iv. The data set is classed as ADME, organism-based, Macaca fascicularis. The conditions noted are these: in vivo.
Data set [9] is described as follows: Cmax in rat at 5 mg/kg, po or 1 mg/kg, iv. The conditions noted are these: in vivo. The data set is classed as ADME, organism-based.
The nature of data set [10]: Free fraction in cynomolgus monkey serum at 5 mg/kg, po or 1 mg/kg, iv. The data set is classed as ADME, organism-based, Macaca fascicularis.
Data set [11] can be described thus: Half-life in rat at 1 mg/kg, iv. The conditions noted are these: in vivo. The data set is classed as ADME, organism-based.
Data set [12] can be described thus: Oral bioavailability in rat at 5 mg/kg. The data set is classed as ADME, organism-based. Particulars: in vivo.
A short description of data set [13]: Free fraction in rat serum at 5 mg/kg, po or 1 mg/kg, iv. The class given is ADME, organism-based.

The source of these data is ChEMBL document CHEMBL6127018, “Molecular design and evaluation of aza-polycyclic carbamoyl pyridones as HIV-1 integrase strand transfer inhibitors” (Bioorg Med Chem Lett, 2024).

As a reminder, the IC50 is the point on the concentration scale where inhibition reaches its midpoint. One may read the CC50 as the concentration at which the toxic effect on the cells reaches its halfway point. In general, EC50 refers to the midpoint of the concentration-response curve. The term half-life denotes how long it takes for the measured level to halve. One may read the bioavailability as the share of a dose that reaches the circulation, judged against a reference dose that is usually intravenous. In general, Cmax refers to the maximum level reached in the sampled fluid or tissue. As a reminder, the fraction unbound is free concentration divided by total concentration.

Molecules are shown by their SMILES.

Sequence of Human immunodeficiency virus type 1 integrase (Q7ZJM1 whole entry): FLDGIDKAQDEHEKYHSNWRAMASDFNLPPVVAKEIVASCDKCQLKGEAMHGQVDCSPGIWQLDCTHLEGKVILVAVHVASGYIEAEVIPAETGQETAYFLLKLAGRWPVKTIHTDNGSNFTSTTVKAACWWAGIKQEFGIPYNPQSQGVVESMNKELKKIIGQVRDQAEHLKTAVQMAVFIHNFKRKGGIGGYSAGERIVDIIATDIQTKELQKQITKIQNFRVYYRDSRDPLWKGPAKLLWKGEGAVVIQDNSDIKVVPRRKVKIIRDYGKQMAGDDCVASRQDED

As for `COCCN1CN(Cc2ccccc2)n2cc(C(=O)NCc3ccc(F)cc3F)c(=O)c(O)c2C1=O`, in data set [1], the IC50 turned out to be 3.5 nM. Also, the Selectivity ratio in data set [2] worked out at 17. Besides, the CC50 in data set [3] was 5000 nM. Also, in data set [4], the response was half-maximal at 1.9 nM (EC50). Also, in [5], the “fold change (FC)” value came out at 1.1.

In the case of `COCCCN1CN(C)n2cc(C(=O)NCc3ccc(F)cc3F)c(=O)c(O)c2C1=O`, the half-maximal inhibitory concentration (IC50) in data set [1] turned out to be 5.6 nM. In addition, the Selectivity ratio in data set [2] amounted to 11. Moreover, in data set [3], the CC50 worked out at 18000 nM. Further, in data set [4], the concentration for a half-maximal effect (EC50) worked out at 1.3 nM. Besides, the “fold change (FC)” value in [5] was 0.93.

For the molecule `CN1CN(CC2CC2)C(=O)c2c(O)c(=O)c(C(=O)NCc3ccc(F)cc3F)cn21`, in data set [1], the half-inhibitory concentration (IC50) is 4 nM. The Selectivity ratio in data set [2] turned out to be 360. The same molecule returned a cytotoxic concentration (CC50) in [3] of 13000 nM. In [4], this molecule yielded a concentration giving a half-maximal response (EC50) of 1.3 nM. The “fold change (FC)” value in [5] is on record as 0.85.

As to `CC(C)N1CN(C)n2cc(C(=O)NCc3ccc(F)cc3F)c(=O)c(O)c2C1=O`, the IC50 in data set [1] stood at 5.3 nM. Moreover, in [2], the Selectivity ratio was 230. In addition, in [3], the midpoint of cytotoxicity, the CC50, lay at 3900 nM. This molecule also registered a half-maximal effective concentration (EC50) in data set [4] of 1.3 nM. Also, in data set [5], the “fold change (FC)” value is on record as 0.64.

In the case of `CN1CN(Cc2ccco2)C(=O)c2c(O)c(=O)c(C(=O)NCc3ccc(F)cc3F)cn21`, the IC50 in data set [1] stood at 5.7 nM. Further, the Selectivity ratio in data set [2] is 89. For the same molecule, the CC50 in [3] is above 50000 nM. Besides, the half-maximal effective concentration (EC50) in data set [4] worked out at 1.5 nM. The “fold change (FC)” value in data set [5] is 0.77.

For `CN1CN(C[C@H]2CCCO2)C(=O)c2c(O)c(=O)c(C(=O)NCc3ccc(F)cc3F)cn21`, the 50% inhibitory concentration (IC50) in [1] is 4.2 nM. Also, the Selectivity ratio in [2] was 23. The molecule also yielded a cytotoxic concentration (CC50) in data set [3] of 9800 nM. This molecule displayed an EC50 in data set [4] of 1.4 nM. Besides, the “fold change (FC)” value in data set [5] is recorded as 1.5.

Consider `O=C(NCc1ccc(F)cc1F)c1cn2c(c([O-])c1=O)C(=O)N1CCCN1C2.[Na+]`, for which the half-life in [6] was 3.7 h; in data set [11], 27.5 h. In addition, the figures for the bioavailability in data set [7] and in [12] were 6.4% and 13%, respectively. The Cmax was 345 ng/mL in data set [8] and 6390 ng/mL in data set [9]. Also, the fraction unbound in data set [10] was 0.0052; in data set [13] it was 0.0002.

In the case of `COCCN1C(=O)c2c([O-])c(=O)c(C(=O)NCc3ccc(F)cc3F)cn2CN1C.[Na+]`, the half-life in data set [6] was 3.1 h; in data set [11], 21.9 h. The figures for the bioavailability in data set [7] and in [12] were 6.1% and 21%, respectively. Further, the Cmax in [8] is 385 ng/mL; in data set [9] it was 9330 ng/mL. Moreover, the values for the fraction unbound in data set [10] and in data set [13] were 0.0118 and 0.0014, respectively.

As for `CN1CN(Cc2ccc(F)cc2)C(=O)c2c(O)c(=O)c(C(=O)NCc3ccc(F)cc3F)cn21`, the IC50 in data set [1] was 4.5 nM. In addition, in data set [2], the Selectivity ratio was determined as 25. Moreover, in [3], the CC50 was above 50000 nM. This molecule also displayed an EC50 in data set [4] of 1.7 nM. Also, the “fold change (FC)” value in data set [5] turned out to be 0.51.

Take `CCN1CN(CCOC)C(=O)c2c(O)c(=O)c(C(=O)NCc3ccc(F)cc3F)cn21`: the half-maximal inhibitory concentration (IC50) in data set [1] is 4.9 nM. The Selectivity ratio in [2] is 110. The molecule further gave a cytotoxic concentration (CC50) in data set [3] of 8500 nM. This molecule yielded a concentration giving a half-maximal response (EC50) in [4] of 1.3 nM. The “fold change (FC)” value in data set [5] is 0.73.

In the case of `CN(C)CCN1CN(C)n2cc(C(=O)NCc3ccc(F)cc3F)c(=O)c(O)c2C1=O`, the half-inhibitory concentration (IC50) in data set [1] came out at 11 nM. The Selectivity ratio in data set [2] worked out at 2.2. Also, the CC50 in data set [3] is 12000 nM. In [4], this molecule registered a concentration for a half-maximal effect (EC50) of 4.8 nM. For the same molecule, the “fold change (FC)” value in [5] is recorded as 5.

For the molecule `COCCN1CN(C)n2cc(C(=O)NCc3ccc(F)cc3F)c(=O)c(O)c2C1=O`, the IC50 in data set [1] amounted to 4.8 nM. Besides, the Selectivity ratio in [2] stood at 18. In addition, it took 13000 nM to reach half-maximal cytotoxicity in data set [3] (CC50). This molecule also came in with a half-maximal effective concentration (EC50) in [4] of 0.83 nM. For the same molecule, in [5], the “fold change (FC)” value is on record as 0.81.

As to `COCCN1CN(C)n2cc(C(=O)NCc3ccc(F)cc3F)c(=O)c([O-])c2C1=O.[Na+]`, the half-life in data set [6] was 4.8 h; in data set [11], 14.3 h. The results for the bioavailability in data set [7] and in data set [12] were 31% and 46%, respectively. In addition, the maximum concentration (Cmax) in [8] worked out at 1700 ng/mL; in data set [9], 18000 ng/mL. Besides, the values for the fraction unbound in data set [10] and in [13] were 0.0072 and 0.0011, respectively.

Take `COCCN1CN(CCO)n2cc(C(=O)NCc3ccc(F)cc3F)c(=O)c(O)c2C1=O`: the IC50 in data set [1] was determined as 5.4 nM. In data set [2], the Selectivity ratio came out at 13. The molecule also displayed a half-maximal cytotoxic concentration (CC50) in [3] of 28000 nM. For the same molecule, in data set [4], the EC50 is 9.4 nM. The “fold change (FC)” value in [5] is given as 0.7.

For `COCCN1CN(CC(=O)N(C)C)n2cc(C(=O)NCc3ccc(F)cc3F)c(=O)c(O)c2C1=O`, the IC50 in [1] turned out to be 5.1 nM. Also, the Selectivity ratio in data set [2] is on record as 5. The molecule also showed a CC50 in data set [3] of 38000 nM. Further, in data set [4], it took 15 nM to reach a half-maximal effect (EC50). In addition, the “fold change (FC)” value in [5] amounted to 0.9.

Take `CN1CN(Cc2cccs2)C(=O)c2c(O)c(=O)c(C(=O)NCc3ccc(F)cc3F)cn21`: the IC50 in data set [1] is 4.5 nM. The Selectivity ratio in data set [2] is reported as 96. This molecule had a cytotoxic concentration (CC50) in data set [3] above 50000 nM. In [4], this molecule displayed a 50% effective concentration (EC50) of 1.7 nM. Also, the “fold change (FC)” value in data set [5] stood at 0.72.

On to `CCN(CC)CCN1CN(CCOC)C(=O)c2c(O)c(=O)c(C(=O)NCc3ccc(F)cc3F)cn21`, for which the IC50 in data set [1] is 22 nM. In addition, in data set [2], the Selectivity ratio was 1.4. The molecule further displayed a 50% cytotoxic concentration (CC50) in data set [3] of 11000 nM. In data set [4], this molecule showed a concentration for a half-maximal effect (EC50) of 13 nM. Further, the “fold change (FC)” value in data set [5] came to 2.3.

Turning to `COCCN1CN(Cc2cccnc2)n2cc(C(=O)NCc3ccc(F)cc3F)c(=O)c(O)c2C1=O`, in data set [1], the IC50 came out at 6.9 nM. Further, in [2], the Selectivity ratio worked out at 3.3. The CC50 in data set [3] turned out to be 8100 nM. In addition, in [4], the EC50 was found to be 3.2 nM. Besides, in [5], the “fold change (FC)” value is reported as 1.4.

`COCCN1CN(Cc2ccccn2)n2cc(C(=O)NCc3ccc(F)cc3F)c(=O)c(O)c2C1=O`: the IC50 in [1] came out at 9.1 nM. In [2], the Selectivity ratio was determined as 4.7. This molecule also yielded a CC50 in data set [3] of 7000 nM. Further, the EC50 in data set [4] came to 2.4 nM. The “fold change (FC)” value in data set [5] was 1.2.

On to `CN1CN(C[C@@H]2CCCO2)C(=O)c2c(O)c(=O)c(C(=O)NCc3ccc(F)cc3F)cn21`, for which the IC50 in [1] stood at 4.7 nM. For the same molecule, the Selectivity ratio in [2] came to 13. In [3], the CC50 turned out to be 14000 nM. Also, in [4], the response was half-maximal at 1.3 nM (EC50). The “fold change (FC)” value in data set [5] was 1.

Take `COCCN1CN(CC(C)C)n2cc(C(=O)NCc3ccc(F)cc3F)c(=O)c(O)c2C1=O`: the IC50 in data set [1] was 6.1 nM. In addition, the Selectivity ratio in [2] stood at 620. Besides, the 50% cytotoxic concentration (CC50) in data set [3] was 13000 nM. Besides, the response in data set [4] was half-maximal at 3.5 nM (EC50). The “fold change (FC)” value in data set [5] came out at 0.6.

For `CN1CN(C2CC2)C(=O)c2c(O)c(=O)c(C(=O)NCc3ccc(F)cc3F)cn21`, the IC50 in data set [1] turned out to be 4.7 nM. Moreover, the Selectivity ratio in data set [2] is on record as 1000. In data set [3], this molecule had a 50% cytotoxic concentration (CC50) of 12000 nM. Moreover, the midpoint of the response in data set [4], the EC50, lay at 2 nM. In [5], the “fold change (FC)” value is 1.5.

`C[C@@H]1CCO[C@H]2Cn3cc(C(=O)NCc4ccc(F)cc4F)c(=O)c([O-])c3C(=O)N12.[Na+]` [DOLUTEGRAVIR SODIUM]: the figures for the half-life in data set [6] and in data set [11] were 6 h and 6.2 h, respectively. The maximum concentration (Cmax) in [8] turned out to be 817 ng/mL; in [9], 10700 ng/mL. The fraction unbound in data set [10] came to 0.0058; in data set [13], 0.0008. In data set [12], this molecule gave a bioavailability of 33%.
